Where “and” joins values, the source holds several entries; their conditions need not be identical. Identical values can stand only once.
How the values were obtained:
CDK2/CycE = target: T1, CDK2/CycE (Homo sapiens, UniProt P24941); test: CDK2/CycE kinase assay (TR-FRET); format: biochemical; conditions: avg, read-out: CDK2 avg (IC50 [mol/l])
T1 construct: GST; purchased ProQinase GmbH (Freiburg, Germany); host or cells: insect cells (Sf9)
Method in brief: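 Read-out is a TR-FRET 665/620 nm emission ratio from EDTA-stopped reactions detected with anti-pRB(pSer807/pSer811), Eu-labelled anti-mouse IgG and streptavidin-XL665, scaled between no-enzyme and uninhibited wells. Reaction: Sf9-expressed GST-CDK2/GST-CycE, 15 min compound preincubation, 10 μM ATP, 0.75 μM biotin-peptide, 25 min, 22° C., pH 8.0 Tris buffer.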

[1] = target: T2, catalytic domain of human Bub1 (amino acids 704-1085) (Homo sapiens, UniProt O43683); test: Bub1 kinase assay (TR-FRET); format: biochemical; conditions: 10 μM ATP, avg, read-out: Bub1 avg (IC50 [mol/l])
T2 construct: catalytic domain of human Bub1 (amino acids 704-1085); His6 (N); made in house; host or cells: insect cells (Hi5)
Method in brief: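 Readout is the 665/620 nm TR-FRET ratio from anti-phosphoserine antibody, Eu-labelled anti-mouse IgG and streptavidin-XL665, scaled between no-enzyme and uninhibited controls. Reaction: 1 μM biotinylated peptide, 10 μM ATP, 60 min, 22 °C, after 15 min compound preincubation with His6-Bub1 (704-1085, insect-expressed, ~200 ng/ml).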

T2 sequence (O43683 704-1085): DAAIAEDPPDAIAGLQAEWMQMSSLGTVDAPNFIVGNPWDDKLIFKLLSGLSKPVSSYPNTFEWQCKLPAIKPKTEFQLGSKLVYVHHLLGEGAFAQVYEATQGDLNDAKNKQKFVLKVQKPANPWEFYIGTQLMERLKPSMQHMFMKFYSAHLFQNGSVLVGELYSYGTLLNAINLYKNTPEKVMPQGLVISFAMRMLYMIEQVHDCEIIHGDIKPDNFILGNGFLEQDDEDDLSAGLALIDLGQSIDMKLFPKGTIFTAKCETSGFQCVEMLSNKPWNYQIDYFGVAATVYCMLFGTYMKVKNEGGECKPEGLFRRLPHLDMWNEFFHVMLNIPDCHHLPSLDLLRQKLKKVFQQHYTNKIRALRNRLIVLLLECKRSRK

| SMILES | IC50 (CDK2/CycE) | IC50 [1] |
| --- | --- | --- |
| Cc1nsc(Nc2cc(C#N)ccn2)c1C(=O)Nc1ccc(NC(=O)OC(C)(C)C)cc1 [Example 177, tert-butyl {4-[({5-[(4-cyanopyridin-2-yl)amino]-3-methyl-1,2-thiazol-4-yl}carbonyl)amino]phenyl}carbamate] | > 20 µM | > 20 µM |
| Cc1nsc(Nc2ccc(C#N)cn2)c1C(=O)Nc1cccc(NC(=O)OC(C)(C)C)c1 [Example 179, tert-butyl {3-[({5-[(5-cyanopyridin-2-yl)amino]-3-methyl-1,2-thiazol-4-yl}carbonyl)amino]phenyl}carbamate] | > 20 µM | > 20 µM |
| Cc1nsc(Nc2cnc3ccccc3n2)c1C(=O)Nc1ccc(C(=O)OC(C)(C)C)cc1 [Example 181, tert-butyl 4-({[3-methyl-5-(quinoxalin-2-ylamino)-1,2-thiazol-4-yl]carbonyl}amino)benzoate] | > 20 µM | > 20 µM |
| Cc1nsc(Nc2cc(C#N)ccn2)c1C(=O)Nc1ccc(C(=O)OC(C)(C)C)cc1 [Example 182, tert-butyl 4-[({5-[(4-cyanopyridin-2-yl)amino]-3-methyl-1,2-thiazol-4-yl}carbonyl)amino]benzoate] | > 20 µM | > 20 µM |
| Cc1nsc(Nc2cnccn2)c1C(=O)Nc1ccc(C(=O)OC(C)(C)C)cc1 [Example 184, tert-butyl 4-({[3-methyl-5-(pyrazin-2-ylamino)-1,2-thiazol-4-yl]carbonyl}amino)benzoate] | > 20 µM | > 20 µM |
| Cc1nsc(Nc2cnc3ccccc3n2)c1C(=O)Nc1ccc(NC(=O)C(C)(C)C)cc1 [Example 185, N-{4-[(2,2-dimethylpropanoyl)amino]phenyl}-3-methyl-5-(quinoxalin-2-ylamino)-1,2-thiazole-4-carboxamide] | > 20 µM | > 20 µM |
| Cc1nsc(Nc2cncc(C(F)(F)F)n2)c1C(=O)Nc1ccc(OCCCNC(=O)OC(C)(C)C)nc1 [Example 190, tert-butyl {3-[(5-{[(3-methyl-5-{[6-(trifluoromethyl)pyrazin-2-yl]amino}-1,2-thiazoL-4-yl)carbonyl]amino}pyridin-2-yl)oxy]propyl}carbamate] | > 20 µM | > 20 µM |
| Cc1nsc(Nc2cncc(C(F)(F)F)n2)c1C(=O)Nc1ccc(OCCNC(=O)OC(C)(C)C)nc1 [Example 191, tert-butyl {2-[(5-{[(3-methyl-5-{[6-(trifluoromethyl)pyrazin-2-yl]amino}-1,2-thiazol-4-yl)carbonyl]amino}pyridin-2-yl)oxy]ethyl}carbamate] | 18 µM | > 20 µM |
| Cc1nsc(Nc2cnc(C(F)(F)F)cn2)c1C(=O)Nc1ccc(OCCNC(=O)OC(C)(C)C)nc1 [Example 192, tert-butyl {2-[(5-{[(3-methyl-5-{[5-(trifluoromethyl)pyrazin-2-yl]amino}-1,2-thiazol-4-yl)carbonyl]amino}pyridin-2-yl)oxy]ethyl}carbamate] | > 20 µM | > 20 µM |
| Cc1nsc(Nc2cncc(C(F)(F)F)n2)c1C(=O)Nc1ccc(C(=O)OC(C)(C)C)cc1 [Example 193, tert-butyl tert-butyl 4-{[(3-methyl-5-{[6-(trifluoromethyl)pyrazin-2-yl]amino}-1,2-thiazol-4-yl)carbonyl]amino}benzoate] | 12 µM | > 20 µM |
| Cc1nsc(Nc2cncc(C(F)(F)F)n2)c1C(=O)Nc1cccc(S(C)(=O)=O)c1 [Example 194, 3-methyl-N-[3-(methylsulfonyl)phenyl]-5-{[6-(trifluoromethyl)pyrazin-2-yl]amino}-1,2-thiazole-4-carboxamide] | > 20 µM and 7.8 µM | > 20 µM and 11 µM and 19 µM |
| Cc1nsc(Nc2cncc(C(F)(F)F)n2)c1C(=O)Nc1ccc(OCCN)nc1 [Example 196, N-[6-(2-aminoethoxy)pyridin-3-yl]-3-methyl-5-{[6-(trifluoromethyl)pyrazin-2-yl]amino}-1,2-thiazole-4-carboxamide] | > 20 µM | > 20 µM |
| Cc1nsc(Nc2cnc3ccccc3n2)c1C(=O)Nc1ccc(OCCC(=O)OC(C)(C)C)nc1 [Example 198, tert-butyl 3-{[5-({[3-methyl-5-(quinoxalin-2-ylamino)-1,2-thiazol-4-yl]carbonyl}amino)pyridin-2-yl]oxy}propanoate] | > 20 µM | > 20 µM |
| Cc1nsc(Nc2cc(C#N)ccn2)c1C(=O)Nc1ccc(OCCC(=O)OC(C)(C)C)nc1 [Example 200, tert-butyl 3-({5-[({5-[(4-cyanopyridin-2-yl)amino]-3-methyl-1,2-thiazol-4-yl}carbonyl)amino]pyridin-2-yl}oxy)propanoate] | > 20 µM | > 20 µM |

Now from value to compound:

| IC50 (CDK2/CycE) | IC50 [1] | SMILES |
| --- | --- | --- |
| > 20 µM | > 20 µM | Cc1nsc(Nc2cnc3ccccc3n2)c1C(=O)Nc1cccc(NC(=O)OC(C)(C)C)c1 [Example 178, tert-butyl [3-({[3-methyl-5-(quinoxalin-2-ylamino)-1,2-thiazol-4-yl]carbonyl}amino)-phenyl]carbamate] |
| > 20 µM | > 20 µM | Cc1nsc(Nc2ccc(C#N)cn2)c1C(=O)Nc1cccc(N)c1 [Example 180, N-(3-aminophenyl)-5-[(5-cyanopyridin-2-yl)amino]-3-methyl-1,2-thiazole-4-carboxamide] |
| > 20 µM | > 20 µM | Cc1nsc(Nc2cc(C#N)ccn2)c1C(=O)Nc1cccc(NC(=O)C(C)(C)C)c1 [Example 183, 5-[(4-cyanopyridin-2-yl)amino]-N-{3-[(2,2-dimethylpropanoyl)amino]phenyl}-3-methyl-1,2-thiazole-4-carboxamide] |
| > 20 µM | > 20 µM | Cc1nsc(Nc2cnc3ccccc3n2)c1C(=O)Nc1cccc(NC(=O)C(C)(C)C)c1 [Example 186, N-{3-[(2,2-dimethylpropanoyl)amino]phenyl}-3-methyl-5-(quinoxalin-2-ylamino)-1,2-thiazole-4-carboxamide] |
| > 20 µM | 3.8 µM | Cc1nsc(Nc2cnc3ccccc3n2)c1C(=O)Nc1ccc(C(=O)O)cc1 [Example 187, 4-({[3-methyl-5-(quinoxalin-2-ylamino)-1,2-thiazol-4-yl]carbonyl}amino)benzoic acid] |
| > 20 µM | > 20 µM | Cc1nsc(Nc2cnc3ccccc3n2)c1C(=O)Nc1ccccc1S(C)(=O)=O [Example 188, 3-methyl-N-[2-(methylsulfonyl)phenyl]-5-(quinoxalin-2-ylamino)-1,2-thiazole-4-carboxamide] |
| > 20 µM | > 20 µM | Cc1nsc(Nc2cncc(C(F)(F)F)n2)c1C(=O)Nc1ccc(OC2CCCN(C(=O)OC(C)(C)C)C2)nc1 (stereo not shown) [Example 189, tert-butyl 3-[(5-{[(3-methyl-5-{[6-(trifluoromethyl)pyrazin-2-yl]amino}-1,2-thiazol-4-yl)carbonyl]amino}pyridin-2-yl)oxy]piperidine-1-carboxylate] |
| > 20 µM | 9.1 µM | Cc1nsc(Nc2cnc(C(F)(F)F)cn2)c1C(=O)Nc1ccc(OCCN)nc1 [Example 197, N-[6-(2-aminoethoxy)pyridin-3-yl]-3-methyl-5-{[5-(trifluoromethyl)pyrazin-2-yl]amino}-1,2-thiazole-4-carboxamide] |
| > 20 µM | > 20 µM | Cc1nsc(Nc2ccc(C#N)cn2)c1C(=O)Nc1ccc(OCCC(=O)OC(C)(C)C)nc1 [Example 199, tert-butyl 3-({5-[({5-[(5-cyanopyridin-2-yl)amino]-3-methyl-1,2-thiazol-4-yl}carbonyl)amino]pyridin-2-yl}oxy)propanoate] |
